In experiment [1] the test system is mice. The experiment is described as follows: GM-CSF given intraplantarly, pain development (Incapacitance Tester). The experiment is classed as in vivo. Particulars: GM-CSF 20 ng i.pl., four hours, vs. saline. On the procedure: Mice were treated with a monoclonal antibody (mAb) to CCL17 (300 μg) or with an isotype control mAb (300 μg) at the same time as being given GM-CSF and pain was measured at four hours later.
(§1) An Incapacitance Tester (Dual Weight Averager) is used to automatically and reproducibly assess the analgesic potency by measuring the weight distribution on the two hind paws.
(§2) Weight placed on each hind limb was measured over a 3 second period. 3 separate measurements taken per mouse for each time point then averaged. Results are expressed as injected limb/control limb×100. Thus a value of 100 means that equal weight is being placed on the right and the left limb. A value below 100 means less weight is being placed on the injected limb (left) compared with the control limb (right).

In experiment [2] the test system is mice. Briefly: CCL17 given intraplantarly, pain development (Incapacitance Tester). Particulars: CCL17 50 ng i.pl., 6 hours, p<0.05 vs. saline. The experiment is classed as in vivo. On the procedure:
as §1, §2
Pain is identified as a decrease in the ratio of weight distribution between the CCL17-injected and saline-injected paw where a percentage of less than 95 indicates pain development (see Example 1 above). Thus, CCL17 can induce pain.

Entries after “also recorded” stand apart in the source; their conditions may differ.

For the molecule GM-CSF: proinflammatory cytokine GM-CSF, the “pain development after i.pl. injection in the footpad” value with mice [1] is listed as “develop pain”.

B1: CCL17: chemokine (C-C motif)17, also known as thymus- and activation-regulated chemokine (protein, UniProt Q92583 24-94, looked up)
C-C motif chemokine 17: ARGTNVGRECCLEYFKGAIPLRKLKTWYQTSEDCSRDAIVFVTVQGRAICSDPNNKRVKNAVKYLQSLERS
For the molecule B1, the “pain development (ratio of weight distribution between CCL17-injected and saline-injected paw; less than 95 indicates pain)” value with mice [2] is listed as “develop pain; also recorded: induces pain”.
